In PubChem BioAssay AID248 (DTP/NCI, 2004):
Where “and” joins values, the source holds several entries; their conditions need not be identical. Identical values can stand only once. Toxic doses and inconclusive results are not listed. Cut-off read from the data, not from the text of the source: active = T/C of 150% or more; inactive = T/C below 125%.

Tested on: L1210 leukemia ip in BDF1 mice, survival T/C
Assay: NCI In Vivo Anticancer Drug Screen. Data for tumor model L1210 Leukemia (intraperitoneal) in B6D2F1 (BDF1) mice
Conditions: endpoint: mean survival time, higher = longer survival
Outline: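 Mice bearing the transplanted tumor received compound or vehicle. Survival of the treated group was divided by that of the vehicle-treated control group to give the ratio.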

[1] = dose: 50.0 mg/kg/injection, schedule: Q04DX002 (ip), vehicle: Klucel (hydroxypropylcellulose) (HPC)
[2] = dose: 100.0 mg/kg/injection, schedule: Q04DX002 (ip), vehicle: Klucel (hydroxypropylcellulose) (HPC)
[3] = dose: 200.0 mg/kg/injection, schedule: Q04DX002 (ip), vehicle: Klucel (hydroxypropylcellulose) (HPC)
[4] = dose: 100.0 mg/kg/injection, schedule: Q01DX001 (ip), vehicle: carboxymethylcellulose (CMC)
[5] = dose: 200.0 mg/kg/injection, schedule: Q01DX001 (ip), vehicle: carboxymethylcellulose (CMC)
[6] = dose: 400.0 mg/kg/injection, schedule: Q01DX001 (ip), vehicle: carboxymethylcellulose (CMC)
[7] = dose: 100.0 mg/kg/injection, schedule: Q01DX009 (ip), vehicle: saline with Tween-80
[8] = dose: 100.0 mg/kg/injection, schedule: Q04DX003 (ip), vehicle: saline with Tween-80
[9] = dose: 200.0 mg/kg/injection, schedule: Q04DX003 (ip), vehicle: saline with Tween-80
[10] = dose: 400.0 mg/kg/injection, schedule: Q04DX003 (ip), vehicle: saline with Tween-80
[11] = dose: 100.0 mg/kg/injection, schedule: Q01DX009 (ip), vehicle: Klucel (hydroxypropylcellulose) (HPC)
[12] = dose: 200.0 mg/kg/injection, schedule: Q01DX009 (ip), vehicle: Klucel (hydroxypropylcellulose) (HPC)
[13] = dose: 400.0 mg/kg/injection, schedule: Q01DX009 (ip), vehicle: Klucel (hydroxypropylcellulose) (HPC)
[14] = dose: 100.0 mg/kg/injection, schedule: Q04DX003 (ip), vehicle: Klucel (hydroxypropylcellulose) (HPC)
[15] = dose: 200.0 mg/kg/injection, schedule: Q04DX003 (ip), vehicle: Klucel (hydroxypropylcellulose) (HPC)

Measured: T/C

O=C1C(c2ccccc2)CS(=O)(=O)CC1c1ccccc1 (stereo not given)
inactive: [1] 101 % of control | [2] 99 % of control | [3] 96 % of control

CCN(CC)CCNc1nc(N)c(C#N)c(C#N)c1C#N
inactive: [4] 96 % of control | [5] 94 % of control | [6] 96 % of control

Cc1cc(C)c2c(c1)C/C2=N/N=C1/Cc2cc(C)cc(C)c21
inactive: [1] 120 % of control | [2] 100 % of control | [3] 92 % of control

O=C1Cc2ccccc2O1
inactive: dose: 50.0 mg/kg/injection, schedule: Q01DX009 (ip), vehicle: saline with Tween-80 101 % of control | [7] 96 % of control

CCCCCCCCCCCCCCCCN(C)S(=O)(=O)c1ccc2sc(SC)[n+](C)c2c1 (tested in a mixture with another compound)
inactive: [7] 94 % of control | [8] 98 % of control | dose: 200.0 mg/kg/injection, schedule: Q01DX009 (ip), vehicle: saline with Tween-80 94 % of control | [9] 102 % of control | dose: 400.0 mg/kg/injection, schedule: Q01DX009 (ip), vehicle: saline with Tween-80 102 % of control | [10] 96 % of control

O=C(Nc1cccc(F)c1)Nc1cc(Cl)ccc1Cl
inactive: [11] 96 % of control and 86 % of control | [12] 102 % of control | [13] 95 % of control and 92 % of control

O=C1OC(=O)C2C1C1C3C(=O)C4C5C(=O)C3C2C5C41 (stereo not given)
inactive: dose: 75.0 mg/kg/injection, schedule: Q04DX002 (ip), vehicle: Klucel (hydroxypropylcellulose) (HPC) 97 % of control | dose: 150.0 mg/kg/injection, schedule: Q04DX002 (ip), vehicle: Klucel (hydroxypropylcellulose) (HPC) 97 % of control | dose: 300.0 mg/kg/injection, schedule: Q04DX002 (ip), vehicle: Klucel (hydroxypropylcellulose) (HPC) 97 % of control

NCCSc1cc(O)c2c(c1N)C(=O)c1ccccc1C2=O
inactive: dose: 50.0 mg/kg/injection, schedule: Q01DX001 (ip), vehicle: carboxymethylcellulose (CMC) 97 % of control | [4] 97 % of control | [5] 100 % of control | [6] 97 % of control

CN(C)CCO/C(CN(C)C)=C(\C#N)c1ccccc1
inactive: dose: 15.0 mg/kg/injection, schedule: Q01DX001 (ip), vehicle: carboxymethylcellulose (CMC) 92 % of control | dose: 30.0 mg/kg/injection, schedule: Q01DX001 (ip), vehicle: carboxymethylcellulose (CMC) 95 % of control

Clc1ccc(-c2cc(=[N+]3CCOCC3)ss2)cc1
inactive: dose: 25.0 mg/kg/injection, schedule: Q01DX009 (ip), vehicle: water 101 % of control | dose: 50.0 mg/kg/injection, schedule: Q01DX009 (ip), vehicle: water 93 % of control | dose: 100.0 mg/kg/injection, schedule: Q01DX009 (ip), vehicle: water 96 % of control | dose: 200.0 mg/kg/injection, schedule: Q01DX009 (ip), vehicle: water 88 % of control

CC(CN(C)N=O)C1CCC2C3CC=C4CC(O)CCC4(C)C3CCC12C (stereo not given)
inactive: dose: 100.0 mg/kg/injection, schedule: Q01DX001 (sc), vehicle: steriod suspending solution 96 % of control | dose: 200.0 mg/kg/injection, schedule: Q01DX001 (sc), vehicle: steriod suspending solution 96 % of control | dose: 400.0 mg/kg/injection, schedule: Q01DX001 (sc), vehicle: steriod suspending solution 100 % of control

CNc1cc(Cl)ncn1
inactive: dose: 50.0 mg/kg/injection, schedule: Q01DX001 (ip), vehicle: saline 90 % of control | dose: 100.0 mg/kg/injection, schedule: Q01DX001 (ip), vehicle: saline 93 % of control | dose: 200.0 mg/kg/injection, schedule: Q01DX001 (ip), vehicle: saline 95 % of control

O=[N+]([O-])c1cc(Br)cc(Br)c1O
inactive: dose: 25.0 mg/kg/injection, schedule: Q04DX002 (ip), vehicle: Klucel (hydroxypropylcellulose) (HPC) 109 % of control | [1] 98 % of control | [2] 98 % of control and 91 % of control

COc1ccc(/C=C\c2nc3ccccc3c(=O)[nH]2)cc1
inactive: [8] 95 % of control | [9] 88 % of control | [10] 95 % of control

O=C(CSCc1ccccc1)c1ccccc1
inactive: [8] 90 % of control | [9] 90 % of control | [10] 100 % of control

CC(C)(C)C1CCC(OS(C)(=O)=O)C(OS(C)(=O)=O)C1 (stereo not given)
inactive: dose: 12.5 mg/kg/injection, schedule: Q04DX003 (ip), vehicle: Klucel (hydroxypropylcellulose) (HPC) 102 % of control | dose: 25.0 mg/kg/injection, schedule: Q04DX003 (ip), vehicle: Klucel (hydroxypropylcellulose) (HPC) 100 % of control

O=C(/C=C\C(=O)c1ccc(Cl)cc1)c1ccc(Cl)cc1
inactive: dose: 50.0 mg/kg/injection, schedule: Q04DX003 (ip), vehicle: carboxymethylcellulose (CMC) 104 % of control | dose: 100.0 mg/kg/injection, schedule: Q04DX003 (ip), vehicle: carboxymethylcellulose (CMC) 112 % of control | dose: 200.0 mg/kg/injection, schedule: Q04DX003 (ip), vehicle: carboxymethylcellulose (CMC) 102 % of control

O=C(C[n+]1ccccc1Cc1ccccc1)c1ccccc1
inactive: [8] 94 % of control | dose: 100.0 mg/kg/injection, schedule: Q04DX003 (ip), vehicle: saline 102 % of control

CCOC(=O)c1n[nH]c(=S)[nH]c1=S
inactive: dose: 100.0 mg/kg/injection, schedule: Q01DX001 (ip), vehicle: acetone 102 % of control | dose: 200.0 mg/kg/injection, schedule: Q01DX001 (ip), vehicle: acetone 101 % of control | dose: 400.0 mg/kg/injection, schedule: Q01DX001 (ip), vehicle: acetone 107 % of control

COc1ccc(C(=O)P(=O)(OC)OC)cc1
inactive: [8] 106 % of control | [9] 104 % of control | [10] 98 % of control

CCC(c1ccc2cc(OC)ccc2c1)C(CC(=O)O)C(=O)OC (stereo not given)
inactive: [14] 100 % of control | [15] 96 % of control | dose: 400.0 mg/kg/injection, schedule: Q04DX003 (ip), vehicle: Klucel (hydroxypropylcellulose) (HPC) 91 % of control

c1ccc(N=Nc2ccc(NC3=NCCO3)cc2)cc1
inactive: [14] 95 % of control | [15] 98 % of control

NP(N)(=O)c1ccccc1
inactive: [8] 107 % of control | [9] 118 % of control | [10] 105 % of control

Cc1cc(C)c(NC(=S)NC(=O)c2ccccc2)cc1C
inactive: dose: 100.0 mg/kg/injection, schedule: Q04DX002 (ip), vehicle: gum acacia 88 % of control | dose: 200.0 mg/kg/injection, schedule: Q04DX002 (ip), vehicle: gum acacia 100 % of control | dose: 400.0 mg/kg/injection, schedule: Q04DX002 (ip), vehicle: gum acacia 96 % of control

CNC(=O)c1cn(C2OC(CO)C(O)C2O)c2ncnc(N)c12 (stereo not given)
inactive: dose: 88.0 mg/kg/injection, schedule: Q01DX001 (ip), vehicle: water 120 % of control | dose: 400.0 mg/kg/injection, schedule: Q01DX001 (ip), vehicle: water 117 % of control

CC1CS(=O)(=O)O1 (stereo not given)
inactive: dose: 100.0 mg/kg/injection, schedule: Q04DX002 (ip), vehicle: saline with Tween-80 114 % of control | dose: 200.0 mg/kg/injection, schedule: Q04DX002 (ip), vehicle: saline with Tween-80 105 % of control

N#C/C(=C\c1ccc(-c2ccccc2)cc1)c1ccc(Cl)cc1
inactive: dose: 3.13 mg/kg/injection, schedule: Q01DX009 (ip), vehicle: saline with Tween-80 98 % of control | dose: 6.25 mg/kg/injection, schedule: Q01DX009 (ip), vehicle: saline with Tween-80 92 % of control | dose: 12.5 mg/kg/injection, schedule: Q01DX009 (ip), vehicle: saline with Tween-80 93 % of control and 87 % of control | dose: 12.5 mg/kg/injection, schedule: Q04DX003 (ip), vehicle: saline with Tween-80 95 % of control | dose: 25.0 mg/kg/injection, schedule: Q04DX003 (ip), vehicle: saline with Tween-80 95 % of control | dose: 50.0 mg/kg/injection, schedule: Q04DX003 (ip), vehicle: saline with Tween-80 93 % of control

NS(=O)(=O)c1ccc(NC(=O)Nc2cccc(Cl)c2Cl)cc1
inactive: [11] 101 % of control | [12] 101 % of control | [13] 95 % of control
